In patent publication US20200316230A1, “DEVICES AND METHODS FOR RADIOPHARMACEUTICAL SYNTHESIS” (VANDERBILT UNIVERSITY, priority 2019, published 2020):

Experiment: microPET imaging of rat brain with [^18F]fallypride produced in the microfluidic chip
Format: in vivo
Conditions: microPET for about 2 hours, dose of about 300 μCi injected
Description: To further verify the utility of the resulting [^18F]fallypride, we produced (using the integrated microfluidic chip) a dose of about 300 μCi with about 19.55 Ci/μmol (723.35 GBq/μmol) of specific activity and about 98.62% of radiochemical purity, and obtained PET data from a rat brain. The time point used to calculate the specific activity was at the end of production, namely the time when the purified [^18F]fallypride was retrieved from chip. The rat was brought to the imaging lab to habituate about 3 hours prior to imaging. Sbout 0.1 ml purified [^18F] fallypride was filtered through an about 0.45 μm filter (Millex-HV) and about 0.9 ml saline was added to formulate the PET probe used for rat injection. […] The accumulation and pharmacokinetics of [^18F]fallypride were as expected when evaluated in the rat brain.

## C=CCN1CCC[C@H]1CNC(=O)c1cc(CCC[18F])cc(OC)c1OC [[^18F]fallypride]
  accumulation and pharmacokinetics of [^18F]fallypride in the rat brain: as expected
